Experimental data reported in ChEMBL document CHEMBL3991601, “The target landscape of clinical kinase drugs” (Science, 2017).
Active and inactive are the calls of the source. Rule as the data show it, for most assays here: actives have a measured Kd and inactives only a lower limit.

Each compound was assayed against Calcium/calmodulin-dependent protein kinase type II subunit delta (Homo sapiens, UniProt Q13557).
Also: in the data inactive means no Kd found up to 30 µM.

Chain of Calcium/calmodulin-dependent protein kinase type II subunit delta (Q13557 whole entry): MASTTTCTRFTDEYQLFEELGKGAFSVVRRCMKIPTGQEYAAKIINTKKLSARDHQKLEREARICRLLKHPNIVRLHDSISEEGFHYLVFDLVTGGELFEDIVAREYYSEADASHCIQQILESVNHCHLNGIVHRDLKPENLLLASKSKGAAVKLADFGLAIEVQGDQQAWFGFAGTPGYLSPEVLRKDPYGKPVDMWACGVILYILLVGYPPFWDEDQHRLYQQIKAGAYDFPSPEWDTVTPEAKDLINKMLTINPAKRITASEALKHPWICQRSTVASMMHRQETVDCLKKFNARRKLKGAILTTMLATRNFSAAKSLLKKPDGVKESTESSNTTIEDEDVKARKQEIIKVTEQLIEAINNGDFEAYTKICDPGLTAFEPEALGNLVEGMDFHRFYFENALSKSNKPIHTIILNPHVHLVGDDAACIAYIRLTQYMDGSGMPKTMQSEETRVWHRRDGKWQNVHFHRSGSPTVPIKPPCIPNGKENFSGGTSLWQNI

Structure (SMILES)	Kd
CC(=O)Nc1cccc(-n2c(=O)n(C3CC3)c(=O)c3c(Nc4ccc(I)cc4F)n(C)c(=O)c(C)c32)c1 [TRAMETINIB]	> 30 µM (inactive)
CN1N=C(N)c2cn([C@@H]3O[C@H](COP(=O)(O)O)[C@@H](O)[C@H]3O)c3ncnc1c23 [TRICIRIBINE PHOSPHATE]	> 30 µM (inactive)
CC(C)Nc1cc(-c2c[nH]c(C(=O)N[C@H](CO)c3cccc(Cl)c3)c2)c(Cl)cn1 [ULIXERTINIB]	> 30 µM (inactive)

Each compound was assayed against T1, Cysteine--tRNA ligase, cytoplasmic (Homo sapiens, UniProt P49589).
T1 sequence (P49589 whole entry): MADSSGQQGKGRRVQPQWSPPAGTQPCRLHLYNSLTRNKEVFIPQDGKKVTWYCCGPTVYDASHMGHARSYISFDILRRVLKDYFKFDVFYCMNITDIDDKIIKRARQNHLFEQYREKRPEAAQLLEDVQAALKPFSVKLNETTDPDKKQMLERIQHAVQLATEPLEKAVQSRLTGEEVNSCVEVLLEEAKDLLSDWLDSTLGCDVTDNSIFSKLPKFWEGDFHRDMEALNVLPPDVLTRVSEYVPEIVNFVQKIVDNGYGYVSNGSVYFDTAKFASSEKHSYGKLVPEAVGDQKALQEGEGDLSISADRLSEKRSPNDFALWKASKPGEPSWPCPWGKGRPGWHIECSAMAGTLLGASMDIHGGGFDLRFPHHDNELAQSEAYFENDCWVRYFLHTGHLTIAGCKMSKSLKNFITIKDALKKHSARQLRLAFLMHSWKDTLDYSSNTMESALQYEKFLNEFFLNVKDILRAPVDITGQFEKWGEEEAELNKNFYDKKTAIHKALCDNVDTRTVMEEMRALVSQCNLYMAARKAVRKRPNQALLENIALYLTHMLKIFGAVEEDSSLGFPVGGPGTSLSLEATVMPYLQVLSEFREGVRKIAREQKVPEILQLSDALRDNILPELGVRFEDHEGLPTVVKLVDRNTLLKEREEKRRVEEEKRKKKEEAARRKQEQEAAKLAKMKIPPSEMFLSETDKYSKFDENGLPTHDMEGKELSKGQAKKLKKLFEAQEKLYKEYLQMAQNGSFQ

Structure (SMILES)	Kd
CC(=O)Nc1cccc(-n2c(=O)n(C3CC3)c(=O)c3c(Nc4ccc(I)cc4F)n(C)c(=O)c(C)c32)c1 [TRAMETINIB]	> 30 µM (inactive)
CN1N=C(N)c2cn([C@@H]3O[C@H](COP(=O)(O)O)[C@@H](O)[C@H]3O)c3ncnc1c23 [TRICIRIBINE PHOSPHATE]	> 30 µM (inactive)
CC(C)Nc1cc(-c2c[nH]c(C(=O)N[C@H](CO)c3cccc(Cl)c3)c2)c(Cl)cn1 [ULIXERTINIB]	> 30 µM (inactive)

These compounds were tested against Casein kinase I isoform alpha (Homo sapiens, UniProt P48729).
Chain of Casein kinase I isoform alpha (P48729 whole entry, canonical isoform): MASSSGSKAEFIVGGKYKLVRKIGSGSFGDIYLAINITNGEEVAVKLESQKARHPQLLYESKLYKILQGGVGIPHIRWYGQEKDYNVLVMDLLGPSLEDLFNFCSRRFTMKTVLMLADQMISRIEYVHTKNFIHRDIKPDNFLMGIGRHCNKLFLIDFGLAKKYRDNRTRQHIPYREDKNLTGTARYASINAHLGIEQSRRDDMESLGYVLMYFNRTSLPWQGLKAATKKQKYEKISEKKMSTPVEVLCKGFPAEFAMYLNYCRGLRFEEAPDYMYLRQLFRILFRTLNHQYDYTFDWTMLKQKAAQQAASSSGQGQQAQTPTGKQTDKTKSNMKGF

Structure (SMILES)	Kd
CC(=O)Nc1cccc(-n2c(=O)n(C3CC3)c(=O)c3c(Nc4ccc(I)cc4F)n(C)c(=O)c(C)c32)c1 [TRAMETINIB]	> 30 µM (inactive)
CN1N=C(N)c2cn([C@@H]3O[C@H](COP(=O)(O)O)[C@@H](O)[C@H]3O)c3ncnc1c23 [TRICIRIBINE PHOSPHATE]	> 30 µM (inactive)
CC(C)Nc1cc(-c2c[nH]c(C(=O)N[C@H](CO)c3cccc(Cl)c3)c2)c(Cl)cn1 [ULIXERTINIB]	> 30 µM (inactive)

The compounds below were run against Casein kinase I isoform gamma-1 (Homo sapiens, UniProt Q9HCP0).
Chain of Casein kinase I isoform gamma-1 (Q9HCP0 whole entry, canonical isoform): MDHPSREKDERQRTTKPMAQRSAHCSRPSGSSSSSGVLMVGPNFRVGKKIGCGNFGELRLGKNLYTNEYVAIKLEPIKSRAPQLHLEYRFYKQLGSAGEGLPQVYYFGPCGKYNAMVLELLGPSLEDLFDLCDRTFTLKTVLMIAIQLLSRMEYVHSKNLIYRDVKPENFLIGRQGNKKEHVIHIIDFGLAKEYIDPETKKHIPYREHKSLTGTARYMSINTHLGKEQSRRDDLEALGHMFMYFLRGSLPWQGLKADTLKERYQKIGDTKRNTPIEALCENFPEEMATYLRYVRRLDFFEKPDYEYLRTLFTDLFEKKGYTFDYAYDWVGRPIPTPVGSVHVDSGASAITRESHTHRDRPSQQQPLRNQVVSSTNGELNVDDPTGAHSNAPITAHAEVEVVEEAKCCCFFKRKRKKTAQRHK

Structure (SMILES)	Kd
CC(=O)Nc1cccc(-n2c(=O)n(C3CC3)c(=O)c3c(Nc4ccc(I)cc4F)n(C)c(=O)c(C)c32)c1 [TRAMETINIB]	> 30 µM (inactive)
CN1N=C(N)c2cn([C@@H]3O[C@H](COP(=O)(O)O)[C@@H](O)[C@H]3O)c3ncnc1c23 [TRICIRIBINE PHOSPHATE]	> 30 µM (inactive)
CC(C)Nc1cc(-c2c[nH]c(C(=O)N[C@H](CO)c3cccc(Cl)c3)c2)c(Cl)cn1 [ULIXERTINIB]	> 30 µM (inactive)

What follows are compounds tested against T2, dCTP pyrophosphatase 1 (Homo sapiens, UniProt Q9H773).
T2 sequence (Q9H773 whole entry): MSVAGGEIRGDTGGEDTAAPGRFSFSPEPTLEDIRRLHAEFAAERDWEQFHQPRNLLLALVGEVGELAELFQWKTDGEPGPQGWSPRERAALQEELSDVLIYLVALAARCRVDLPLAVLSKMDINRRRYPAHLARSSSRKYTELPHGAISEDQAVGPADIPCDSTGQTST

Structure (SMILES)	Kd
CC(=O)Nc1cccc(-n2c(=O)n(C3CC3)c(=O)c3c(Nc4ccc(I)cc4F)n(C)c(=O)c(C)c32)c1 [TRAMETINIB]	> 30 µM (inactive)
CN1N=C(N)c2cn([C@@H]3O[C@H](COP(=O)(O)O)[C@@H](O)[C@H]3O)c3ncnc1c23 [TRICIRIBINE PHOSPHATE]	> 30 µM (inactive)
CC(C)Nc1cc(-c2c[nH]c(C(=O)N[C@H](CO)c3cccc(Cl)c3)c2)c(Cl)cn1 [ULIXERTINIB]	> 30 µM (inactive)

The compounds below were run against T3, Discoidin domain-containing receptor 2 (Homo sapiens, UniProt Q16832).
T3 sequence (Q16832 whole entry): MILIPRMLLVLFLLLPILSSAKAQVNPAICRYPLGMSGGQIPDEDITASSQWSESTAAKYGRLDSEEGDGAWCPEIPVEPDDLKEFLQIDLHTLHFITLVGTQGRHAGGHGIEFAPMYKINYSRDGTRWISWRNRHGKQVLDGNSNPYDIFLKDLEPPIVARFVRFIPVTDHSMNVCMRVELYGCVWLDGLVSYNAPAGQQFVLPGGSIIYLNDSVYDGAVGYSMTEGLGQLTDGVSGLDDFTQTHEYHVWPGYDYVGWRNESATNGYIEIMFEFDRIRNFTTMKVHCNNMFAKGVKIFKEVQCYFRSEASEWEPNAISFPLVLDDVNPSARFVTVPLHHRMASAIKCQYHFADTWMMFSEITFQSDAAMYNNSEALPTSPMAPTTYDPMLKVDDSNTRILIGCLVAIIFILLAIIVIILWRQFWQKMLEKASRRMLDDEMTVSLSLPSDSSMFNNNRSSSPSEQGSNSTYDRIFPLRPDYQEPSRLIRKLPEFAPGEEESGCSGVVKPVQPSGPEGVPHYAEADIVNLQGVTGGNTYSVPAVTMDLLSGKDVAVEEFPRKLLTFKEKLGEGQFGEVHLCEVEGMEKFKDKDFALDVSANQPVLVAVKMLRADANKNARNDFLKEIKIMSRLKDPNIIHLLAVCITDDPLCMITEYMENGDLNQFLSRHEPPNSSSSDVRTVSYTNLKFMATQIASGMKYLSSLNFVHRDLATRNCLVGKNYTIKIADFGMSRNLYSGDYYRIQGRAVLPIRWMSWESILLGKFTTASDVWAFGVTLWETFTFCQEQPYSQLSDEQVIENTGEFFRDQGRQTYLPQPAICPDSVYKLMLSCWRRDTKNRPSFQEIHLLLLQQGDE

Structure (SMILES)	Kd
CC(=O)Nc1cccc(-n2c(=O)n(C3CC3)c(=O)c3c(Nc4ccc(I)cc4F)n(C)c(=O)c(C)c32)c1 [TRAMETINIB]	> 30 µM (inactive)
CN1N=C(N)c2cn([C@@H]3O[C@H](COP(=O)(O)O)[C@@H](O)[C@H]3O)c3ncnc1c23 [TRICIRIBINE PHOSPHATE]	> 30 µM (inactive)
CC(C)Nc1cc(-c2c[nH]c(C(=O)N[C@H](CO)c3cccc(Cl)c3)c2)c(Cl)cn1 [ULIXERTINIB]	> 30 µM (inactive)

The compounds below were run against Glycogen synthase kinase-3 alpha (Homo sapiens, UniProt P49840).
Chain of Glycogen synthase kinase-3 alpha (P49840 whole entry): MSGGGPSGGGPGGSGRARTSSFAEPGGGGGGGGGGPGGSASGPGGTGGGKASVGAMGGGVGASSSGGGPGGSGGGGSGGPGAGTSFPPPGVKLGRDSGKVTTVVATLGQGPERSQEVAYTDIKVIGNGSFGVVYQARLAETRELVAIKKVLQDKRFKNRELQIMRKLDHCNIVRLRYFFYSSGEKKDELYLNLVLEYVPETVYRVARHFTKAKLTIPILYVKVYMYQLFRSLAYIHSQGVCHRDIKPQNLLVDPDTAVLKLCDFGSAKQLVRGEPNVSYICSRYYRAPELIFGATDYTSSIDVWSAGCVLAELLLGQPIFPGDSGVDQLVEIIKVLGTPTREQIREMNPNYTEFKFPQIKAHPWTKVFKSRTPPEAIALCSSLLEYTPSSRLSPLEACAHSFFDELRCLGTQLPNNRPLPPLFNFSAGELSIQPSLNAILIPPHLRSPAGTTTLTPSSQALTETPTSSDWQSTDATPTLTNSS

Structure (SMILES)	Kd
CC(=O)Nc1cccc(-n2c(=O)n(C3CC3)c(=O)c3c(Nc4ccc(I)cc4F)n(C)c(=O)c(C)c32)c1 [TRAMETINIB]	> 30 µM (inactive)
CN1N=C(N)c2cn([C@@H]3O[C@H](COP(=O)(O)O)[C@@H](O)[C@H]3O)c3ncnc1c23 [TRICIRIBINE PHOSPHATE]	> 30 µM (inactive)
CC(C)Nc1cc(-c2c[nH]c(C(=O)N[C@H](CO)c3cccc(Cl)c3)c2)c(Cl)cn1 [ULIXERTINIB]	> 30 µM (inactive)

The compounds below were run against Ribosomal protein S6 kinase alpha-6 (Homo sapiens, UniProt Q9UK32).
Chain of Ribosomal protein S6 kinase alpha-6 (Q9UK32 whole entry): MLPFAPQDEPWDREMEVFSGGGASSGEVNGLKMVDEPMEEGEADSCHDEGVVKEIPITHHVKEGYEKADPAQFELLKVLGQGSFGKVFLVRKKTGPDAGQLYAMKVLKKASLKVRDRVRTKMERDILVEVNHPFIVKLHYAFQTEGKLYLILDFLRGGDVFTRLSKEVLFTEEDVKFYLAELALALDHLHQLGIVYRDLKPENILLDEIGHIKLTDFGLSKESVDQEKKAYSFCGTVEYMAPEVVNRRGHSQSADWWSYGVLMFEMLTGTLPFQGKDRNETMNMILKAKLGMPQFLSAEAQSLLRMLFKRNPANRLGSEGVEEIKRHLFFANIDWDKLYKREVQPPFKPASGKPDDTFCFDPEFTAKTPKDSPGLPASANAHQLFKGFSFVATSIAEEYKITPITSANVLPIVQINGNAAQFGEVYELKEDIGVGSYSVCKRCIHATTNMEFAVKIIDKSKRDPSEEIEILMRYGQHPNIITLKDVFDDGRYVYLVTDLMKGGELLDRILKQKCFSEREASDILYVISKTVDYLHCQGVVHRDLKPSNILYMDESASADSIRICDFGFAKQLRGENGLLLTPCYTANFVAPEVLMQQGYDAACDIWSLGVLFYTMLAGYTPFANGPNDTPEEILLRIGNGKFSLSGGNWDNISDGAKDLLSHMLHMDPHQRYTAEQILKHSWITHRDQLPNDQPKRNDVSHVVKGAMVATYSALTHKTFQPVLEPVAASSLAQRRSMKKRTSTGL

Structure (SMILES)	Kd
CC(=O)Nc1cccc(-n2c(=O)n(C3CC3)c(=O)c3c(Nc4ccc(I)cc4F)n(C)c(=O)c(C)c32)c1 [TRAMETINIB]	> 30 µM (inactive)
CN1N=C(N)c2cn([C@@H]3O[C@H](COP(=O)(O)O)[C@@H](O)[C@H]3O)c3ncnc1c23 [TRICIRIBINE PHOSPHATE]	> 30 µM (inactive)
CC(C)Nc1cc(-c2c[nH]c(C(=O)N[C@H](CO)c3cccc(Cl)c3)c2)c(Cl)cn1 [ULIXERTINIB]	> 30 µM (inactive)

These compounds were tested against T4, Serine/threonine-protein kinase TAO3 (Homo sapiens, UniProt Q9H2K8).
T4 sequence (Q9H2K8 whole entry): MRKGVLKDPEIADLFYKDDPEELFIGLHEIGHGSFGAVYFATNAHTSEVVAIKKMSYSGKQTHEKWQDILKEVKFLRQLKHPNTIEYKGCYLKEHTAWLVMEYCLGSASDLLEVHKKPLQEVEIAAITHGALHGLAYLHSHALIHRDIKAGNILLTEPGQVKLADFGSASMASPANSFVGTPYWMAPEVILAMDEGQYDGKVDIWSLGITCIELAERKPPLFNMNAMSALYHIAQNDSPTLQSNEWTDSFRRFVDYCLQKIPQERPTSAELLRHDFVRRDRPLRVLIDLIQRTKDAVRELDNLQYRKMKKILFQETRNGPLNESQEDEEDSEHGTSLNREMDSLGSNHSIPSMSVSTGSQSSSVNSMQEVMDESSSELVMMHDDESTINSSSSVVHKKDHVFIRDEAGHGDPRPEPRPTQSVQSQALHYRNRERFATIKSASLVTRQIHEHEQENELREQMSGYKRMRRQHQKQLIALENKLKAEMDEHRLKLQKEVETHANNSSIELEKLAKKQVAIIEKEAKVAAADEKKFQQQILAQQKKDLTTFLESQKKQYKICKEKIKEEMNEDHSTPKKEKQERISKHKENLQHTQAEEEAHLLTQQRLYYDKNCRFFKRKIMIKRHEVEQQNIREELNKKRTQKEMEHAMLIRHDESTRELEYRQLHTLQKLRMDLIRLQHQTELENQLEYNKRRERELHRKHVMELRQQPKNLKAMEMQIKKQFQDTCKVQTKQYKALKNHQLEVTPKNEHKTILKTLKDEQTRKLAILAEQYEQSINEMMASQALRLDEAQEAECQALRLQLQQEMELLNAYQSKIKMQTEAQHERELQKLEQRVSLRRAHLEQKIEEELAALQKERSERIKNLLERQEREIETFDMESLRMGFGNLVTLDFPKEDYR

Structure (SMILES)	Kd
CC(=O)Nc1cccc(-n2c(=O)n(C3CC3)c(=O)c3c(Nc4ccc(I)cc4F)n(C)c(=O)c(C)c32)c1 [TRAMETINIB]	> 30 µM (inactive)
CN1N=C(N)c2cn([C@@H]3O[C@H](COP(=O)(O)O)[C@@H](O)[C@H]3O)c3ncnc1c23 [TRICIRIBINE PHOSPHATE]	> 30 µM (inactive)
CC(C)Nc1cc(-c2c[nH]c(C(=O)N[C@H](CO)c3cccc(Cl)c3)c2)c(Cl)cn1 [ULIXERTINIB]	> 30 µM (inactive)
